Assay results reported in patent publication US6406679B1, “Use of HL-60-related lectins in drug delivery and detection of lectin-expressing cells” (Incyte Pharmaceuticals, Inc., priority 1992, dated 2002).
“And” between values parts separate entries of the source, which are not always exact repeats. Identical values can stand only once.

Experiments:
[1] = test system: Human blood cells; assay: Staining of lectin-pretreated human blood cells with fluoresceinated antibodies (histogram analyses); format: cell-based
Excerpt: Human blood cells were pretreated with the inventive HL-60 lectin and then stained with fluoresceinated antibody having several different specificities. Control cells were not pretreated with lectin. […] However, the effect of lectin treatment on M1 and M3 macrophages was significant.

[2] = test system: Jurkat T-cells on inflamed rat brain vascular endothelium; assay: Binding to inflamed brain endothelium sections; format: cell-based, human; conditions: 250 μg/ml lectin
[3] = test system: lymph node cells; assay: Response of lymph node cells to the lectin (mitogenicity); format: cell-based, rat; conditions: data not shown
[4] = test system: mice immunized with AChR; assay: EAMG: muscle acetylcholine receptor content and Ig-complexed AChR; format: in vivo, mouse; conditions: for % of AChR Complexed with Ig / Carcass AChR Content: 10 days after injection
Protocol: After the observation period, the animals were sacrificed, skinned, and eviscerated; and a cholinergic receptor (AChR) extract was prepared as described by Lefvert, A. K. et al., Scand. J. Immunol. supra for determination of total AChR content and Ig-complexed AChR content, as described therein.
Briefly, to determine total AChR content, known portions of the AChR extracts were incubated with a ten-fold excess of ^125I-alpha-bungarotoxin for 1 hour at 37° C. so as to label the receptor for quantitation. The mixture was subjected to gel filtration on Sephacryl G200 to separate free and bound toxin. To determine the amount of AChR complexed to IgG or IgM antibodies, the extract was incubated with a ten-fold excess of labeled bungarotoxin overnight at 4° C.; anti-mouse IgG or IgM was then added and the samples incubated overnight at 4° C., followed by separation of the precipitates, washing and counting.

[5] = test system: Lewis rats; assay: Rat heart transplantation (Brown Norway into Lewis); format: in vivo; conditions: for Onset of Rejection: d − 3 to d + 9, heart allograft
Protocol: The studies reported here relate to Brown Norway rat tissue transplanted into Lewis rats. This model, a highly histo-incompatible donor/recipient pair, provides a very stringent test with predictive value in human transplantation. Known general immunosuppressive agents show immunosuppressive activity in these models. Several forums of this model are used in the studies reported here.
These studies were performed in the laboratory of Dr. Randy Morris of Stanford University. Whole rat hearts were grafted into host rats which were examined daily thereafter for signs of rejection.
A control group comprised twelve recipients treated daily i.v. only with buffer control. The graft survival times were: 6d (x4), 7d (x7), and 8d, giving a mean survival of […]+/−0.6d (SD). The final day of survival is defined as the day on which the donor heart ceased to contract as assessed by lack of obvious palpitations and as confirmed by direct visualization at laparotomy.
Five recipients were treated with the recombinant lectin. All animals were pretreated with 1 mg/kg i.v. lectin on days −3, −2 and −1. The first two animals were then treated postoperatively with 1 mg/kg/d i.v. with lectin from day 1 until graft rejection. The second three animals were treated in the postoperative period from day 1 until graft rejection with 2 mg/kg/d i.v. of lectin. Graft survivals were 9 and 10d for the first group of rats, and 9, 10 and 11d for the second group. No dramatic increase in survival was seen by doubling the dose of lectin in group two in the postoperative period. Therefore, graft survival times of both groups were combined for statistical analysis. When graft survival was analyzed, lectin treatment produced a mean graft survival of 9.8+/−0.84d (SD), +/−0.38d (SEM) with a 95% confidence limit. Using the one-tailed Mann-Whitney U-test to compare the differences between the graft survival times for the saline and lectin-treated groups, a P value of 0.00096 was obtained.

[6] = test system: T-cell lines; assay: Selection of GPBP-specific T-cell lines from draining lymph nodes; format: in vivo, rat; conditions: lectin-treated rats
Excerpt: In a follow-up experiment, T-cell lines were selected from the draining lymph nodes.

[7] = test system: BALB/c and C57B/6 mice; assay: Experimental autoimmune myasthenia gravis (EAMG): clinical signs of neuromuscular dysfunction; format: in vivo, mouse
Excerpt: Experimental autoimmune myasthenia gravis (EAMG) is an antibody-mediated autoimmune disease responding to acetylcholine receptors (AChR). This condition in mice is a recognized model for studying the effects of the autoimmune response on neuromuscular transmission (Levi, G. et al., Eur. J. Immunol. (1983) 13:500-507; Lefvert, A. K. et al., Scand. J. Immunol. (1978) 8:525; Lefvert, A. K. et al., J. Neuro. Immunol. (1985) 9:41; Lefvert, A. K. et al., Eur. J. Immunol. (1982) 12:790). It appears that myasthenia gravis is mediated by T helper cells, which produce acetylcholine receptor antibodies. The disease is induced in mice by injection of acetylcholine receptor. The acetylcholine receptor is obtained from the electric organ of the ray Torpedo marmorata and purified by affinity chromatography on Naja naja siamensis neurotoxin crosslinked to Sephadex.
Young adult female BALB/c and C57B/6 mice (2-4 months of age) were used because they differ in EAMG susceptibility. The mice were injected subcutaneously with 10 μg of purified acetylcholine receptor, in Freund's complete adjuvant without and with the 14 kD-β-gal lectin.
Blood was obtained after 3 days and after 1, 2, 3 and 4 weeks. To follow the development of the disease, the mice were observed daily for signs of neuromuscular dysfunction and after 10 days subjected to forced exercise using repetitive grasping, swimming and inverted hang. These exercises were repeated after warming under a heat lamp at 35° C. for 5 min.

[8] = HLA-DR, lectin-pretreated cells
[9] = NK(L-A), lectin-pretreated cells

Lectin: Soluble 14 kD β-galactoside-binding HL-60/placenta lectin of FIG. 1 (SEQ ID NO:2), prepared recombinantly in E. coli
+FL1 ([1]; CD3+, lectin-pretreated cells): 458 | +mode ([1]; CD3+, lectin-pretreated cells): 416 | percent ([1]; CD3+, lectin-pretreated cells): 77.8% | +FL1 ([1]; CD4+, lectin-pretreated cells): 181.5 | +mode ([1]; CD4+, lectin-pretreated cells): 151 | percent ([1]; CD4+, lectin-pretreated cells): 46.4% | +FL1 [1, 8]: 614 | +mode [1, 8]: 432 | percent [1, 8]: 13.3% | +FL1 ([1]; M1, lectin-pretreated cells): 403 | +mode ([1]; M1, lectin-pretreated cells): 387 | percent ([1]; M1, lectin-pretreated cells): 46.1% | reduction of the percent of positive cells ([1]; M1 macrophages, lectin vs control): 33% | +FL1 ([1]; M3, lectin-pretreated cells): 549 | +mode ([1]; M3, lectin-pretreated cells): 517 | percent ([1]; M3, lectin-pretreated cells): 45.1% | reduction of the percent of positive cells ([1]; M3 macrophages, lectin vs control): 26% | +FL1 [1, 9]: 106 | +mode [1, 9]: 94.7 | percent [1, 9]: 10.8% | changes for CD3+, CD4+, NK(L-A) or HLA-DR cell markers ([1]; lectin vs control): No significant changes | Binding to Inflamed Brain Endothelium [2]: did not bind | mitogenicity for lymph node cells [3]: not mitogenic | % of AChR Complexed with Ig ([4]; AChR + lectin 0.1 μg): 48 ± 6.0% | Carcass AChR Content ([4]; AChR + lectin 0.1 μg): 0.8 ± 0.4 mol × 10^−11 | % of AChR Complexed with Ig ([4]; AChR + lectin 1 μg): 52 ± 2.0% | Carcass AChR Content ([4]; AChR + lectin 1 μg): 1.4 ± 0.3 mol × 10^−11 | % of AChR Complexed with Ig ([4]; AChR + lectin 5 μg): 44 ± 5.0% | Carcass AChR Content ([4]; AChR + lectin 5 μg): 0.9 ± 0.5 mol × 10^−11 | % of AChR Complexed with Ig ([4]; AChR + lectin 15 μg): 11 ± 10.7% | Carcass AChR Content ([4]; AChR + lectin 15 μg): 3.5 ± 0.4 mol × 10^−11 | % of AChR Complexed with Ig ([4]; AChR + lectin 25 μg): 11 ± 7.8% | Carcass AChR Content ([4]; AChR + lectin 25 μg): 3.2 ± 0.6 mol × 10^−11 | AChR loss and amount of Ig-complexed AChR ([4]; single subcutaneous doses of about 7.5-12 μg): lowered | Graft survival, individual animals ([5]; 1 mg/kg i.v. days −3 to −1, then 1 mg/kg/d i.v. until rejection): 9 days and 10 days | Graft survival, individual animals ([5]; 1 mg/kg i.v. days −3 to −1, then 2 mg/kg/d i.v. until rejection): 9 days and 10 days and 11 days | Onset of Rejection ([5]; 1 mg/kg): 9.8 ± .8 days | Onset of Rejection ([5]; 2 mg/kg): 9.8 ± .8 days | toxicity as might be manifested by weight loss ([5]; 1-2 mg/kg/d i.v.): no noticeable toxicity | mean graft survival (SD) ([5]; both lectin dose groups combined, five recipients): 9.8 ± 0.84 days | GPBP-specific T-cell lines from draining lymph nodes [6]: no lines could be established | Mice Showing Clinical Signs of Neuromuscular Dysfunction (%) ([7]; BALB/c, Receptor + 2.5 μg Lectin s.c.): 18% | Mice Showing Clinical Signs of Neuromuscular Dysfunction (%) ([7]; BALB/c, Receptor + 12 μg Lectin s.c.): 4% | Mice Showing Clinical Signs of Neuromuscular Dysfunction (%) ([7]; C57B/6, Receptor + 2.5 μg Lectin s.c.): 59% | Mice Showing Clinical Signs of Neuromuscular Dysfunction (%) ([7]; C57B/6, Receptor + 12 μg Lectin s.c.): 11% | neuromuscular deterioration ([7]; both strains, higher lectin dose levels): markedly slowed
